# Experimental data from patent US4038384A, “Antibiotic A-28086 and process for production thereof” (Eli Lilly and Company, priority 1975, dated 1977).
# Key:
# [1] = test system: Staphylococcus aureus (H-Heatley) NRRL B-314; experiment: Turbidometric assay (Autoturb), relative gram-positive activity; type: cell-based; settings: relative to A-28086 factor A standard = 1; nutrient broth pH 7, 4 hours, 37° C.
# Description: The C2 -C6 -acyl ester derivatives of A-28086 factor A also have antibacterial and antifungal activity. In one aspect, these derivatives have increased gram-positive activity. The relative gram-positive activities of certain of these derivatives were compared with the activity of factor A. The compounds were tested by turbidometric assay on a semiautomated system (Autoturb microbiological assay system, Elanco) described by N. R. Kuzel and F. W. Kavanaugh in J. Pharmaceut. Sci. 60 (5), 764 and 767 (1971). In testing the A-28086 antibiotics, the following test parameters were used: Staphylococcus aureus (H-Heatley) NRRL B-314 in a nutrient broth medium (pH 7), incubated for 4 hours at 37° C. Test samples and the standard were dissolved in methanol-water (10:90). The standard, A-28086 factor A, was presented to the Autoturb carrousel at concentrations of 2, 3, 4, and 5 mcg/ml. Test compounds were diluted to contain approximately 3 or 4 mcg of activity per ml, as presented to the carrousel. The relative activities of test compounds, as compared to that of the standard, are given below: […]
# rumen flora = experiment: In vitro rumen fluid test, volatile fatty acid production; type: cell-based, steer; settings: 1 ppm in rumen fluid, 16 hours, 38° C.
# From the text: As discussed hereinabove, efficiency of carbohydrate utilization in ruminants is increased by treatments which stimulate the animal's rumen flora to produce propionate compounds rather than acetate or butyrate compounds. The efficiency of feed use can be monitored by observing the production and concentration of propionate compounds in the rumen, using the following methods:
# Rumen fluid is obtained from a steer with a surgically-installed fistula opening into the rumen. The steer is maintained on a high-grain ration. A sample of rumen fluid is strained through four layers of cheesecloth, and the filtrate is collected. The particulate matter retained by the cheesecloth is resuspended in enough physiological buffer to return it to the original volume of the rumen fluid, and this suspension is strained again. The buffer used has the following composition:
# The two filtrates are combined and allowed to stand until particulate matter separates to the top. The clear layer is separated, diluted with the same buffer (1:1) and then adjusted to between pH 6.8 to 7.0.
# The diluted rumen fluid (10 ml) is placed in a 25-ml flask with 40 mg of the above-described feed, an additional 1 mg of soybean protein, and the compound to be tested. Four replicate flasks are used per treatment. Two sets of four control flasks each are also employed. A zero-time control and an incubated 16-hour control are used. All test flasks are incubated for 16 hours at 38° C. […] The samples are allowed to settle, and the supernatants are analyzed by gas chromatography for propionate, acetate, and butyrate compounds.
# [2] = Electrometric titration in 80% aqueous dimethylformamide (pKa)
# Eimeria tenella = experiment: Anticoccidial activity in chicks against Eimeria tenella; type: in vivo, Eimeria tenella; chickens; settings: for Percent Weight Gain: normal controls 100
# [3] = Solubility in water and organic solvents; type: physicochemical; settings: nonpolar organic solvents such as hexane
# [4] = In vivo feed-utilization efficiency in sheep; settings: 56 days
# ruminal propionic acid = experiment: In vivo ruminal propionic acid concentration in fistulated steers; settings: 100 mg/day, mean of five analyses in 14 days
# Description: The test reported in Table XII was conducted with mature fistulated steers weighing about 1,000 lbs. each. Two steers were fed a normal diet, and four steers in each treatment group were fed an identical diet to which A-28086 factor A had been added. To each aliquot (100 ml) of rumen fluid taken, 10 percent metaphosphoric acid (100 ml) was added. The samples were allowed to settle, and the supernatants were analyzed by gas chromatographic methods to determine propionic acid concentrations.
# The results in Table XII are the mean percent increases in ruminal propionic acid concentration, averaged over five analyses in a 14-day treatment period. Controls had approximately 20 molar percent propionic acid.
# [5] = test system: E. necatrix and E. tenella; experiment: Anticoccidial activity in chicks against mixed Eimeria species; type: in vivo, E. necatrix and E. tenella; broiler cockerels; settings: 0.005% in feed
# From the text: (§1) ^1 Four replicates, 5 broiler cockerels each.
# [6] = test system: E. tenella, E. necatrix, E. maxima, E. brunetti, E. acervulina, and E. mivati; experiment: as above; type: in vivo; settings: 0.01% in feed
# From the text: as §1
# [7] = General microbiological (antibacterial/antifungal) activity; type: cell-based; settings: in words
smiles,measurement,setting,value
CCC(=O)OC1C=CC2(OC(C(CC)C(=O)C(C)C(O)C(C)C3OC(C(CC)C(=O)O)C(C)CC3C)C(C)CC2C)OC12CCC(C)(C1CCC(O)(CC)C(C)O1)O2 (stereo not shown) [A-28086 factor A propionyl ester derivative],Relative G^+ Activity,[1],7
same,"Ratio of Treated to Control, Molar % acetate",rumen flora,0.90
same,"Ratio of Treated to Control, Molar % butyrate",rumen flora,0.68
CCCCC(=O)OC1C=CC2(OC(C(CC)C(=O)C(C)C(O)C(C)C3OC(C(CC)C(=O)O)C(C)CC3C)C(C)CC2C)OC12CCC(C)(C1CCC(O)(CC)C(C)O1)O2 (stereo not shown) [A-28086 factor A n-valeryl ester derivative],Relative G^+ Activity,[1],14
same,"Ratio of Treated to Control, Molar % acetate",rumen flora,0.92
same,"Ratio of Treated to Control, Molar % butyrate",rumen flora,0.79
"CCC(C(=O)O)C1OC(C(C)C(O)C(C)C(=O)C(CC)C2OC3(C=CC(OC(C)=O)C4(CCC(C)(C5CCC(O)(CC)C(C)O5)O4)O3)C(C)CC2C)C(C)CC1C (stereo not shown) [A-28086 factor A acetyl ester derivative, A-28086 factor A acetyl ester]",Relative G^+ Activity,[1],2.5
same,pKa value of titratable group,[2],8.5
same,"Ratio of Treated to Control, Molar % acetate",rumen flora,0.79
same,"Ratio of Treated to Control, Molar % butyrate",rumen flora,0.76
CCCCCC(=O)OC1C=CC2(OC(C(CC)C(=O)C(C)C(O)C(C)C3OC(C(CC)C(=O)O)C(C)CC3C)C(C)CC2C)OC12CCC(C)(C1CCC(O)(CC)C(C)O1)O2 (stereo not shown) [A-28086 factor A n-caproyl ester derivative],Relative G^+ Activity,[1],20
same,"Ratio of Treated to Control, Molar % acetate",rumen flora,0.86
same,"Ratio of Treated to Control, Molar % butyrate",rumen flora,0.97
same,"Ratio of Treated to Control, Total VFA mM/l",rumen flora,0.99
CCC(C(=O)O)C1OC(C(C)C(O)C(C)C(=O)C(CC)C2OC3(C=CC(O)C4(CCC(C)(C5CCC(O)(CC)C(C)O5)O4)O3)C(C)CC2C)C(C)CC1C (stereo not shown) [A-28086 factor A],Percent Reduction in Lesion Score,"Eimeria tenella; 0.0025% in feed, second group",0%
same,Percent Mortality,"Eimeria tenella; 0.0025% in feed, second group (20 chickens)",10%
same,Percent Weight Gain,"Eimeria tenella; 0.0025% in feed, second group",87%
same,Average Lesion Score,"Eimeria tenella; 0.005% in feed, second group",2.8
same,Percent Reduction in Lesion Score,"Eimeria tenella; 0.005% in feed, second group",27%
same,Percent Mortality,"Eimeria tenella; 0.005% in feed, second group (20 chickens)",0%
same,Percent Weight Gain,"Eimeria tenella; 0.005% in feed, second group",91%
same,Average Lesion Score,"Eimeria tenella; 0.01% in feed, first group",0.2
same,Percent Reduction in Lesion Score,"Eimeria tenella; 0.01% in feed, first group",95%
same,Percent Mortality,"Eimeria tenella; 0.01% in feed, first group (10 chickens)",0%
same,Percent Weight Gain,"Eimeria tenella; 0.01% in feed, first group",94%
same,Average Lesion Score,"Eimeria tenella; 0.01% in feed, second group",0
same,Percent Reduction in Lesion Score,"Eimeria tenella; 0.01% in feed, second group",100%
same,Percent Mortality,"Eimeria tenella; 0.01% in feed, second group (20 chickens)",0%
same,Percent Weight Gain,"Eimeria tenella; 0.01% in feed, second group",96%
same,Average Lesion Score,"Eimeria tenella; 0.02% in feed, first group",0.2
same,Percent Reduction in Lesion Score,"Eimeria tenella; 0.02% in feed, first group",95%
same,Percent Mortality,"Eimeria tenella; 0.02% in feed, first group (10 chickens)",0%
same,Percent Weight Gain,"Eimeria tenella; 0.02% in feed, first group",82%
same,Average Lesion Score,"Eimeria tenella; 0.02% in feed, second group",0
same,Percent Reduction in Lesion Score,"Eimeria tenella; 0.02% in feed, second group",100%
same,Percent Mortality,"Eimeria tenella; 0.02% in feed, second group (20 chickens)",0%
same,Percent Weight Gain,"Eimeria tenella; 0.02% in feed, second group",84%
same,Average Lesion Score,"Eimeria tenella; 0.04% in feed, first group",0
same,Percent Reduction in Lesion Score,"Eimeria tenella; 0.04% in feed, first group",100%
same,Percent Mortality,"Eimeria tenella; 0.04% in feed, first group (10 chickens)",0%
same,Percent Weight Gain,"Eimeria tenella; 0.04% in feed, first group",50%
same,Relative G^+ Activity,[1],1
same,solubility in nonpolar organic solvents,[3],only slightly soluble
same,Feed/Grain,[4]; 9 g per ton of feed,7.40
same,Feed/Grain,[4]; 18 g per ton of feed,8.31
same,Percent Increase Over Control in ruminal propionic acid concentration,ruminal propionic acid,54.0%
same,Cecal Lesions Percent Reducton,[5],50%
same,pKa value of titratable group,[2],7.9
same,"Ratio of Treated to Control, Molar % acetate",rumen flora,0.94
same,"Ratio of Treated to Control, Molar % butyrate",rumen flora,0.87
same,Cecal Lesions Percent Reducton,[6],73%
CCC(C(=O)OC)C1OC(C(C)C(O)C(C)C(=O)C(CC)C2OC3(C=CC(O)C4(CCC(C)(C5CCC(O)(CC)C(C)O5)O4)O3)C(C)CC2C)C(C)CC1C (stereo not shown) [A-28086-I],microbiological activity,[7],not microbiologically active
CCCC(=O)OC1C=CC2(OC(C(CC)C(=O)C(C)C(O)C(C)C3OC(C(CC)C(=O)O)C(C)CC3C)C(C)CC2C)OC12CCC(C)(C1CCC(O)(CC)C(C)O1)O2 (stereo not shown) [A-28086 factor A n-butyryl ester derivative],Relative G^+ Activity,[1],8
same,"Ratio of Treated to Control, Molar % acetate",rumen flora,0.91
same,"Ratio of Treated to Control, Molar % butyrate",rumen flora,0.81
